Our source for the GI50 and TGI values is PubChem BioAssay (NCI).

Test systems include NCI-H226 lung; UO-31 renal; HOP-92 NSCLC; SR leukemia; SF-268 CNS; MOLT-4 leukemia; SK-OV-3 ovarian; TK-10 renal; HCT-116 colon; SNB-75 CNS.
What all share (assay): inhibition of tumour cell growth, NCI panel, 48 h

Several values for one entry are separate records, joined by “and”; a condition that tells them apart may be missing. Equal values may be shown once.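 Values below derive from 48-hour exposures of cells grown in 96-well plates, with endpoints linearly interpolated between the two concentrations bracketing the appropriate inhibition level. The concentration for 50% growth inhibition is given as GI50. TGI denotes the concentration required for complete inhibition of growth.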 Some results are limits rather than exact numbers.

`COc1ccc(C2=CC(c3ccc(OC)c(OC)c3)c3c(c4ccccc4oc3=O)O2)cc1OC` (centres undefined): the GI50 with NCI-H226 lung is above 21.1 µM; in the experiment with UO-31 renal, 1.58 µM; in the experiment on HOP-92 NSCLC, 4.8 µM; with SR leukemia, 0.498 µM; in the experiment with SF-268 CNS it was 3.46 µM; in the experiment with MOLT-4 leukemia, 4.05 µM. Also, the GI50 in the experiment on SK-OV-3 ovarian was 2.68 µM; in the experiment with TK-10 renal it was above 24.9 µM; with HCT-116 colon, 1.58 µM; with SNB-75 CNS it was 0.341 µM. Also, the TGI in the experiment on NCI-H226 lung, in the experiment on UO-31 renal, in the experiment with HOP-92 NSCLC, in the experiment with SR leukemia, in the experiment on SF-268 CNS and in the experiment on MOLT-4 leukemia was above 100 µM each time. Also, the TGI with SK-OV-3 ovarian was above 100 µM; with TK-10 renal, above 100 µM; in the experiment with HCT-116 colon it was above 59.6 µM; in the experiment with SNB-75 CNS, 2.17 µM.

On to `CCC(=O)N/N=C(\C=C\c1cccc(O)c1)c1sc(Nc2ccc(C)cc2[N+](=O)[O-])nc1C`, for which the TGI in the experiment with NCI-H226 lung was above 100 µM; in the experiment with UO-31 renal, above 100 µM; with HOP-92 NSCLC it was 27.5 µM; in the experiment on SR leukemia, above 100 µM; with SF-268 CNS, above 100 µM; in the experiment with MOLT-4 leukemia, above 100 µM. For the same compound, the TGI in the experiment with SK-OV-3 ovarian, in the experiment on TK-10 renal, in the experiment with HCT-116 colon and with SNB-75 CNS was above 100 µM throughout.

Turning to `COc1ccc2nc(NC(=O)c3cccnc3Nc3cc(OC)c(OC)c(OC)c3)sc2c1`, the GI50 in the experiment on NCI-H226 lung was 10.7 µM; in the experiment on UO-31 renal, 9.3 µM; with HOP-92 NSCLC it was 2.24 µM; in the experiment with SR leukemia, 2.31 µM; in the experiment with SF-268 CNS it was 4.43 µM; in the experiment on MOLT-4 leukemia, 24.2 µM. For the same compound, the GI50 with SK-OV-3 ovarian is 3.72 µM; in the experiment on TK-10 renal it was 4.31 µM; in the experiment with HCT-116 colon it was 4.5 µM; in the experiment on SNB-75 CNS, 2.89 µM. For the same compound, the TGI with NCI-H226 lung was 96.7 µM; in the experiment with UO-31 renal it was 27.2 µM; in the experiment with HOP-92 NSCLC, 9.5 µM; in the experiment with SR leukemia, 16.1 µM; with SF-268 CNS it was 18.9 µM; in the experiment on MOLT-4 leukemia it was above 100 µM. Also, the TGI turned out to be 14.5 µM with SK-OV-3 ovarian, 14.1 µM with TK-10 renal, 18.4 µM in the experiment with HCT-116 colon and 12.8 µM in the experiment on SNB-75 CNS.

Regarding `COC(=O)C1=C(c2ccc3c(c2)OCO3)OC(c2cc(OC)c(OC)c(OC)c2)C1` (centres undefined), the TGI in the experiment with NCI-H226 lung, in the experiment on UO-31 renal, in the experiment on HOP-92 NSCLC, with SR leukemia, in the experiment with SF-268 CNS and with MOLT-4 leukemia was above 100 µM in each case. Further, the TGI with SK-OV-3 ovarian was 8.09 µM; in the experiment with TK-10 renal it was above 100 µM; with HCT-116 colon it was 85.4 µM; in the experiment on SNB-75 CNS, above 100 µM.

Regarding `O=C(NO)c1ccc(O)c(O)c1`, the TGI with NCI-H226 lung, in the experiment on UO-31 renal, with HOP-92 NSCLC, with SR leukemia, in the experiment with SF-268 CNS and in the experiment with MOLT-4 leukemia was above 100 µM throughout. Besides, the TGI in the experiment with SK-OV-3 ovarian, in the experiment with TK-10 renal, in the experiment with HCT-116 colon and in the experiment on SNB-75 CNS was above 100 µM in each case.

As to `O=C1NC(=O)C2C1N(Cc1ccccc1)C(=O)N2Cc1ccccc1` (centres undefined), the TGI in the experiment with NCI-H226 lung, in the experiment with UO-31 renal, in the experiment on HOP-92 NSCLC, with SR leukemia, with SF-268 CNS and in the experiment on MOLT-4 leukemia was above 100 µM in each case. In addition, the TGI in the experiment with SK-OV-3 ovarian, with TK-10 renal, in the experiment on HCT-116 colon and in the experiment with SNB-75 CNS was above 100 µM throughout.

As for `CO[C@H]1CC(c2ccc[nH]2)=N[C@]12O[C@@H](C)C[C@@H]1CCCCCCCc3ccc([nH]3)[C@H]12`, the GI50 with NCI-H226 lung is 0.929 µM; in the experiment with UO-31 renal it was 0.932 µM; in the experiment with HOP-92 NSCLC, 0.8 µM; with SR leukemia, 0.72 µM; in the experiment on SF-268 CNS it was 1.65 µM; in the experiment on MOLT-4 leukemia, 1.01 µM. For the same compound, the GI50 was 4.41 µM with SK-OV-3 ovarian, 2.33 µM with TK-10 renal, 0.711 µM in the experiment on HCT-116 colon and 0.825 µM with SNB-75 CNS. Besides, the TGI in the experiment with NCI-H226 lung is 5.25 µM; with UO-31 renal it was 4.2 µM; in the experiment with HOP-92 NSCLC, 4.81 µM; in the experiment with SR leukemia it was 4.93 µM; with SF-268 CNS, above 32.2 µM; in the experiment with MOLT-4 leukemia, 13.6 µM. Also, the TGI is 18.9 µM in the experiment with SK-OV-3 ovarian, above 29.6 µM in the experiment with TK-10 renal, 3.48 µM in the experiment on HCT-116 colon and 2.79 µM in the experiment on SNB-75 CNS.

Consider `O=C(/C=C1/Nc2ccc([N+](=O)[O-])cc2NC1O)c1cccc([N+](=O)[O-])c1` (centres undefined), for which the TGI in the experiment on NCI-H226 lung, with UO-31 renal, in the experiment on HOP-92 NSCLC, with SR leukemia, in the experiment with SF-268 CNS and in the experiment with MOLT-4 leukemia was above 100 µM each time. The TGI was 57.2 µM in the experiment on SK-OV-3 ovarian, 88.4 µM with TK-10 renal, above 100 µM in the experiment on HCT-116 colon and above 100 µM in the experiment with SNB-75 CNS.

Turning to `COC1=C2CC(C)CC(OC)C(O)C(C)/C=C(\C)C(OC(N)=O)C(OC)/C=C\C=C(/C)C(=O)NC(=C(/C=N/N3CCCCC3)C1=O)C2=O` (centres undefined), the TGI in the experiment on NCI-H226 lung worked out at 34.5 µM; in the experiment on UO-31 renal it was 23.4 µM; in the experiment with HOP-92 NSCLC it was 35.4 µM; in the experiment on SR leukemia it was 7.48 µM; in the experiment with SF-268 CNS it was 25.1 µM; in the experiment on MOLT-4 leukemia it was 7.39 µM. The TGI turned out to be 55.7 µM in the experiment on SK-OV-3 ovarian, 72.1 µM with TK-10 renal, 9.48 µM with HCT-116 colon and 41 µM in the experiment on SNB-75 CNS.

In the case of `c1ccc(CNc2nc(Nc3ccccc3)nc3ccccc23)cc1`, the GI50 was 2.26 µM with NCI-H226 lung; 2.1 µM in the experiment on UO-31 renal; 1.45 µM with HOP-92 NSCLC; 2.28 µM in the experiment with SR leukemia; 3.01 µM in the experiment on SF-268 CNS; 2.21 µM with MOLT-4 leukemia. Further, the GI50 in the experiment on SK-OV-3 ovarian was 3.26 µM; in the experiment with TK-10 renal, 2.02 µM; in the experiment with HCT-116 colon it was 1.71 µM; with SNB-75 CNS it was 1.93 µM. Moreover, the TGI was 11.6 µM with NCI-H226 lung; 8.53 µM in the experiment with UO-31 renal; 3.05 µM in the experiment with HOP-92 NSCLC; 6.07 µM in the experiment with SR leukemia; 9.3 µM in the experiment with SF-268 CNS; 5.37 µM with MOLT-4 leukemia. Besides, the TGI in the experiment with SK-OV-3 ovarian was determined as 9.51 µM; in the experiment on TK-10 renal, 4.53 µM; in the experiment with HCT-116 colon, 3.3 µM; with SNB-75 CNS, 6.5 µM.

With `CCn1c2ccccc2c2cc(C(O)c3cccc4ncccc34)ccc21` (centres undefined), the GI50 with NCI-H226 lung was 0.831 µM; in the experiment on UO-31 renal it was 0.285 µM; in the experiment on HOP-92 NSCLC, 0.0324 µM; in the experiment with SR leukemia, 0.0248 µM; in the experiment on SF-268 CNS, 0.068 µM; in the experiment with MOLT-4 leukemia, 0.0633 µM. The GI50 with SK-OV-3 ovarian was 0.0545 µM; in the experiment with TK-10 renal, 3.7 µM; in the experiment with HCT-116 colon, 0.0441 µM; in the experiment with SNB-75 CNS it was 0.0254 µM. Moreover, the TGI is 46.8 µM in the experiment on NCI-H226 lung; above 100 µM with UO-31 renal; 4.98 µM in the experiment with HOP-92 NSCLC; above 73.6 µM with SF-268 CNS; above 100 µM in the experiment on MOLT-4 leukemia; above 100 µM in the experiment on SK-OV-3 ovarian. The TGI in the experiment with TK-10 renal was above 78.6 µM; with HCT-116 colon, 15.4 µM; in the experiment on SNB-75 CNS it was 34.1 µM.

In the case of `CC(=O)Oc1ccc(C(c2ccc(OC(C)=O)cc2)c2ccccn2)cc1`, the GI50 is 40.2 µM in the experiment with NCI-H226 lung; 21.4 µM in the experiment on UO-31 renal; 0.861 µM with HOP-92 NSCLC; above 100 µM in the experiment with SR leukemia; above 87.9 µM with SF-268 CNS; 40.5 µM in the experiment on MOLT-4 leukemia. For the same compound, the GI50 in the experiment on SK-OV-3 ovarian is 31.7 µM; in the experiment with TK-10 renal, above 59.7 µM; in the experiment with HCT-116 colon, 40.7 µM; in the experiment on SNB-75 CNS, 24.8 µM. The TGI in the experiment with NCI-H226 lung is above 100 µM; in the experiment on UO-31 renal, above 100 µM; in the experiment with HOP-92 NSCLC it was 34.3 µM and > 94.1 µM; with SR leukemia, above 100 µM; with SF-268 CNS it was above 100 µM; in the experiment with MOLT-4 leukemia, above 100 µM. Moreover, the TGI is > 100 µM and 98.3 µM in the experiment on SK-OV-3 ovarian; above 100 µM in the experiment on TK-10 renal; above 100 µM in the experiment with HCT-116 colon; above 100 µM in the experiment on SNB-75 CNS.

Consider `O=C(O)CCSC(=O)Nc1ccc(N=Nc2ccccc2)cc1`, for which the TGI in the experiment on NCI-H226 lung, in the experiment with UO-31 renal, with HOP-92 NSCLC, in the experiment with SR leukemia, in the experiment with SF-268 CNS and in the experiment with MOLT-4 leukemia was above 100 µM in each case. The TGI in the experiment on SK-OV-3 ovarian, in the experiment on TK-10 renal, with HCT-116 colon and with SNB-75 CNS was above 100 µM in each case.
